According to PMC7822065, “Discovery of indole-3-butyric acid derivatives as potent histone deacetylase inhibitors” (Journal of Enzyme Inhibition and Medicinal Chemistry, 2021):

Experiments:
[1] = system: U266 cells; experiment: MTT antiproliferative assay, U266; conditions: Homo sapiens, U-266, 48 h, read-out: U266 IC50
Experimental: The stock solutions of tested compounds were diluted with culture medium. […] Then, the cells were treated with compound sample at various concentrations for 48 h. Afterward, 20 MTT working solution (5 mg/ml) was added to each well and incubated for another 4 h. After incubation, the medium formed from MTT was extracted by adding DMSO (200 µl). The optical density (OD) at 490 nm and 630 nm were measured by Universal Microplate Spectrophotometer. […] The IC50 values were calculated with Origin 7.5 software (Originlab Corporation, Northampton, MA), and standard deviations of the IC50 values were obtained through at least 3 independent experiments.
To evaluate the antiproliferative activity of hydroxamic acid containing molecules, MTT assays were performed using U937, U266, and HepG2 cell lines.

[2] = system: HDACs (HeLa nucleus extract containing a mixture of HDAC isoforms); experiment: HDAC inhibitory assay with HeLa nucleus extract; conditions: at the concentration of 1 µM

SMILES | IC50 [1] [nM] | HDACs, percentage inhibition rate (PIR) ([2]; 1 µM) [%] | HDACs, percentage inhibition rate (PIR) [2] [%]
CCCNNC(=O)c1ccc(NC(=O)CCCc2cn(Cc3ccccc3)c3ccccc23)cc1 [Compound I2e2, 4-(1-Benzyl-1H-indol-3-yl)-N-[4-(N′-propyl-hydrazinocarbonyl)-phenyl]-butyramide] | 1110 ± 80 | 57.46 ± 2.06 | 
CCCCNNC(=O)c1ccc(NC(=O)CCCc2cn(Cc3ccccc3)c3ccccc23)cc1 [Compound I2e3, 4-(1-Benzyl-1H-indol-3-yl)-N-[4-(N′-butyl-hydrazinocarbonyl)-phenyl]-butyramide] | 1710 ± 70 |  | 51.41 ± 2.78
CCCCNNC(=O)c1ccc(NC(=O)CCCc2cn(CCCC)c3ccccc23)cc1 [Compound I12e3, N-[4-(N′-Butyl-hydrazinocarbonyl)-phenyl]-4-(1-butyl-1H-indol-3-yl)-butyramide] | 1440 ± 310 |  | 42.76 ± 1.56
CCCCNNC(=O)c1ccc(NC(=O)CCCc2cn(CC)c3ccccc23)cc1 [Compound I3e3, N-[4-(N′-Butyl-hydrazinocarbonyl)-phenyl]-4-(1-ethyl-1H-indol-3-yl)-butyramide] | 1450 ± 100 |  | 31.94 ± 1.51
CCCNNC(=O)c1ccc(NC(=O)CCCc2cn(C)c3ccccc23)cc1 [Compound I13e2, 4-(1-Methyl-1H-indol-3-yl)-N-[4-(N′-propyl-hydrazinocarbonyl)-phenyl]-butyramide] | 710 ± 110 |  | 29.68 ± 2.06
CCCNNC(=O)c1ccc(NC(=O)CCCc2cn(Cc3c(F)cccc3F)c3ccccc23)cc1 [Compound I10e2, 4-[1-(2,6-Difluoro-benzyl)-1H-indol-3-yl]-N-[4-(N′-propyl-hydrazinocarbonyl)-phenyl]-butyramide] | 740 ± 50 |  | 46.85 ± 2.06
CCCCNNC(=O)c1ccc(NC(=O)CCCc2c[nH]c3ccccc23)cc1 [Compound I1e3, N-[4-(N′-Butyl-hydrazinocarbonyl)-phenyl]-4-(1H-indol-3-yl)-butyramide] | 1060 ± 50 |  | 30.47 ± 1.17
CCNNC(=O)c1ccc(NC(=O)CCCc2c[nH]c3ccccc23)cc1 [Compound I1e1, N-[4-(N′-Ethyl-hydrazinocarbonyl)-phenyl]-4-(1H-indol-3-yl)-butyramide] | 15970 ± 140 |  | 50.60 ± 2.02
CCCNNC(=O)c1ccc(NC(=O)CCCc2cn(CC)c3ccccc23)cc1 [Compound I3e2, 4-(1-Ethyl-1H-indol-3-yl)-N-[4-(N′-propyl-hydrazinocarbonyl)-phenyl]-butyramide] | 480 ± 100 |  | 36.51 ± 2.93
CCCNNC(=O)c1ccc(NC(=O)CCCc2cn(Cc3cccc(F)c3)c3ccccc23)cc1 [Compound I7e2, 4-[1-(3-Fluoro-benzyl)-1H-indol-3-yl]-N-[4-(N′-propyl-hydrazinocarbonyl)-phenyl]-butyramide] | 1320 ± 80 |  | 30.45 ± 3.38
CCCCn1cc(CCCC(=O)Nc2ccc(C(=O)NNCCC)cc2)c2ccccc21 [Compound I12e2, 4-(1-Butyl-1H-indol-3-yl)-N-[4-(N′-propyl-hydrazinocarbonyl)-phenyl]-butyramide] | 1280 ± 120 |  | 39.73 ± 1.84
CCCCNNC(=O)c1ccc(NC(=O)CCCc2cn(C)c3ccccc23)cc1 [Compound I13e3, N-[4-(N′-Butyl-hydrazinocarbonyl)-phenyl]-4-(1-methyl-1H-indol-3-yl)-butyramide] | 1360 ± 60 |  | 32.15 ± 1.03
CC(C)CNNC(=O)c1ccc(NC(=O)CCCc2c[nH]c3ccccc23)cc1 [Compound I1e4, 4-(1H-Indol-3-yl)-N-[4-(N′-isobutyl-hydrazinocarbonyl)-phenyl]-butyramide] | 16000 ± 670 |  | 7.16 ± 1.50
CCCNNC(=O)c1ccc(NC(=O)CCCc2c[nH]c3ccccc23)cc1 [Compound I1e2, 4-(1H-Indol-3-yl)-N-[4-(N′-propyl-hydrazinocarbonyl)-phenyl]-butyramide] | 640 ± 20 |  | 61.34 ± 3.56
